How the values were obtained:
[1] = Effect of lactate in solution on the dose response effect of glucose on fluorescence; settings: 75 μM in PBS, 0–10 mM glucose with 0, 2 or 5 mM lactate, excitation 365 nm (FIG. 3)
Description: Spectra were recorded using a Shimadzu RF-5301 spectrafluorometer with excitation @365 nm; excitation slits at 1.5 nm; emission slits at 1.5 nm; ambient temperature. All points measured in triplicate, with ±1 SD error bars included.
(§1) The hydrogel film (100 μm thickness, 8 mm diameter disk) was mounted in a PMMA cuvette at a 45° angle. All measurements were made at 37° C. in a Shimadzu RF-5301 spectrofluorometer with excitation at 370 nm (slit=3 nm) and emission at 430 nm (slit=3 nm) at low PMT sensitivity. Glucose and L-sodium lactate concentrations were checked using the YSI Model 2300 STAT plus glucose analyzer. Error bars are standard deviation with triplicate values for each data point.
as §1, with “The data is plotted as the average of” for “Error bars are standard deviation with”

[2] = Modulation of fluorescence with glucose
[3] = Modulation of fluorescence with lactate
[4] = aqueous association with glucose; cited from earlier work
[5] = Solubility; assay type: physicochemical; settings: solvents in which soluble

O=C(O)CCN(Cc1ccccc1B(O)O)Cc1c2ccccc2c(CN(CCC(=O)O)Cc2ccccc2B(O)O)c2ccccc12 [9,10-bis[N-(2-boronobenzyl)-N-[2-(carboxyethyl)amino]-methyl]anthracene]
effect of lactate on the fluorescence modulation (at 428 nm) by glucose [1]: did not substantially affect

CN(CCNc1ccc2c3c(cccc13)C(=O)N(CCNC(=O)c1cc(B(O)O)cc([N+](=O)[O-])c1)C2=O)Cc1ccccc1B(O)O [Example 10, N-(3-Borono-5-nitrobenzamido)ethyl-4-(N′-aminoethylene-N″-[2-(borono)benzyl]methylamino)naphthalene-1,8-dicarboximide]
normalized fluorescence emission (I/I0 at 525 nm), effect of glucose ([2]; in MeOH/PBS (50/50 vol. %), pH 7.4, 0–50 mM glucose, excitation 430 nm (FIG. 12)): affected by the presence of glucose
normalized fluorescence emission (I/I0 at 530 nm), effect of lactate ([3]; in MeOH/PBS (50/50 vol. %), pH 7.4, 0–7 mM L-sodium lactate, excitation 430 nm (FIG. 13)): not by the presence of lactate

OB(O)c1ccccc1 [phenylboronic acid]
Kd [4]: 9.1 mM

N-2-[6-N-(N-4-dimethylaminobenzyl)-6-N-[2-(borono)benzyl]aminohexyl]-[2-(borono)benzyl]amino-ethyl-4-butylamino-1,8-naphthalimide [Example 5]
normalized fluorescence emission (I/Io @ 535 nm), effect of glucose ([2]; 0.015 mM in 70/30 MeOH/PBS, 0–20 mM glucose, excitation 450 nm (FIG. 5)): affected by the presence of glucose
normalized fluorescence emission (I/Io @ 535 nm), effect of lactate ([3]; 0.015 mM in 70/30 MeOH/PBS, 0–20 mM lactate, excitation 450 nm (FIG. 5)): not substantially affected by the presence of lactate

C=C(C)C(=O)NCCCN(Cc1ccccc1B(O)O)Cc1c2ccccc2c(CN(CCC(=O)O)Cc2ccccc2B(O)O)c2ccccc12 [Example 12, 9-[N-(2-boronobenzyl)-N-[3-(methacrylamido)propylamino]methyl]-10-[N-(2-boronobenzyl)-N-[2-(carboxyethyl)amino]methyl]anthracene]
Solubility [5]: PBS/methanol, methanol, ethanol, chloroform, dichloromethane

C=C(C)C(=O)NCCCN(Cc1ccccc1B1OC(C)(C)C(C)(C)O1)Cc1c2ccccc2c(CN(CCC(=O)NCCCCCCNC(=O)c2c3ccccc3cc3ccccc23)Cc2ccccc2B2OC(C)(C)C(C)(C)O2)c2ccccc12 [Example 13]
Solubility [5]: PBS/methanol, methanol, ethanol, chloroform, dichloromethane

Reference: US7078554B2, “Detection of glucose in solutions also containing an alpha-hydroxy acid or a beta-diketone” (Sensors for Medicine and Science, Inc., priority 2001, dated 2006)
